Test results: patent US20180185408A1, “ANTIFUNGAL NYLON-3 POLYMERS AND COMBINATION THERAPY USING THEM TO TREAT FUNGAL INFECTIONS” (priority 2016, published 2018)

Tested on: Cryptococcus neoformans
Experiment: MIC by broth microdilution (CLSI M27-A3)
Format: cell-based
Conditions: Cryptococcus neoformans, Resistance FLU

For `OC(Cn1cncn1)(Cn1cncn1)c1ccc(F)cc1F` [FLC, fluconazole], the MIC50 (Cryptococcus neoformans CN2) was > 64 µg/mL and the MIC50 (Cryptococcus neoformans CN3) was > 64 µg/mL.
